Like-named read-outs stand apart in the source and are kept apart here.
Tests used:
ddCTP dephosphorylation = assay: ATP inhibition of ddCTP dephosphorylation in erythrocyte lysate; format: biochemical, human; conditions: 2 mM ATP, 100 μM ddCTP, 37° C
Protocol: Human erythrocytes lysates were prepared by adding 2 volumes of 3 mM sodium potassium phosphate buffer, pH 7.4, containing 3 mM mercaptoethanol, 0.5 mM EDTA to each volume of washed and packed erythrocytes. After 30 min at 4° C., the lysates were centrifuged for 1 h at 12,000×g to remove the cell membranes. The supernatants were then dialyzed overnight against 160 volumes of 0.9% (w/v) NaCl containing 10 mM Tris-HCl, pH 7.5, 10 mM MgCl2 and 0.02 mM EDTA. The dialyzed lysates were then used for the studies of ddCTP stability. Briefly, 900 μl of lysate containing ddCTP 50 μM, 100 μM, 300 μM, 1.2 mM or 1.5 mM in a final volume of 1.2 ml were incubated at 37° C. At time intervals of 0, 15, 30 and 60 min, 250 μl of the incubation mixtures were removed and extracted with 125 μl of 10% (v/v) HClO4. The perchloric acid extract was then neutralized with 23 μl of a 3M solution of K2 CO3, diluted with 60 μl of 0.1M sodium potassium phosphate buffer pH 6.5, centrifuged 10 min at 10,000 rpm in an Eppendorf microcentrifuge and 100 μl of extract analyzed by HPLC as described below. […] Integration of peak areas was obtained by means of an HP 3390A electronic integrator (Hewlett-Packard, Avondale, Pa., U.S.A.). […]

[1] = cited from earlier work
[2] = In vivo half life of loaded erythrocytes in mice (125I-ubiquitin radioactivity)
Protocol: Similar experiments were also performed on mice erythrocytes to do in vivo studies. The results are similar to those reported above. The in vivo half life of these erythrocytes was evaluated by following the radioactivity of ^125 I-ubiquitin-loaded erythrocytes coencapsulated with ddCTP in erythrocytes treated or not with ZnCl2 and BS^3.
In this case, the radioactivity associated with the erythrocytes was determined on blood collected from the tail vein of animals receiving the erythrocytes described above.

[3] = tested on: human erythrocytes lysates; assay: ddCTP stability in human erythrocytes lysates (HPLC); format: in vitro ADME; conditions: for time stable in erythrocyte lysate: in the presence or absence of ATP
Protocol: Human erythrocytes lysates were prepared by adding 2 volumes of 3 mM sodium potassium phosphate buffer, pH 7.4, containing 3 mM mercaptoethanol, 0.5 mM EDTA to each volume of washed and packed erythrocytes. After 30 min at 4° C., the lysates were centrifuged for 1 h at 12,000×g to remove the cell membranes. The supernatants were then dialyzed overnight against 160 volumes of 0.9% (w/v) NaCl containing 10 mM Tris-HCl, pH 7.5, 10 mM MgCl2 and 0.02 mM EDTA. The dialyzed lysates were then used for the studies of ddCTP stability. Briefly, 900 μl of lysate containing ddCTP 50 μM, 100 μM, 300 μM, 1.2 mM or 1.5 mM in a final volume of 1.2 ml were incubated at 37° C. At time intervals of 0, 15, 30 and 60 min, 250 μl of the incubation mixtures were removed and extracted with 125 μl of 10% (v/v) HClO4. The perchloric acid extract was then neutralized with 23 μl of a 3M solution of K2 CO3, diluted with 60 μl of 0.1M sodium potassium phosphate buffer pH 6.5, centrifuged 10 min at 10,000 rpm in an Eppendorf microcentrifuge and 100 μl of extract analyzed by HPLC as described below. […] Integration of peak areas was obtained by means of an HP 3390A electronic integrator (Hewlett-Packard, Avondale, Pa., U.S.A.). A 5 μm Supelcosil LC-18 column (250 mm×4.6 mm I.D., Supelco, Bellefonte, Pa., U.S.A.) protected by a guard column (Pelliguard LC-18, 20 mm×4.6 mm I.D., pellicular packing material, 40 μm particles) was used throughout these studies. […] All buffer solutions, as well as standards and sample solutions, were filtered through a 0.22 μm membrane filter (Millipore).
The elution conditions used to obtain the chromatograms were: 2 min 100% buffer A, 4 min up to 10% buffer B, 4 min up to 40% buffer B, 3 min up to 100% buffer B and the same conditions are maintained for 7 min. The gradient was then returned to 100% buffer A in 2 min and the initial conditions restored in 8 min. The flow-rate was 1.3 ml/min and the detection wavelength was 272 nm. The analyses were performed at room temperature. Quantitative measurements were carried out by injection of standard solutions of known concentration.

human erythrocytes [4] = conditions: cited from earlier work
[5] = tested on: human monocytes/macrophages; assay: Delivery of 3H-ddCTP to monocytes/macrophages by phagocytosis; format: cell-based; conditions: 3H-ddCTP-loaded erythrocytes
Protocol: Human monocytes/macrophages were prepared from heparinized blood by Lymphoprep (Nyegaard & Co Oslo, Norway) centrifugation. Mononuclear cells collected at the interface between the Lymphoprep and plasma were washed in 5 mM sodium potassium phosphate buffer, pH 7.4, containing 0.9% (w/v) NaCl, 5 mM glucose and finally resuspended in RPMI 1640 medium containing 10% (v/v) fetal bovine serum (FCS). 8.10^6 cells were placed into 100 mm Corning dish and incubated overnight at 37° C. and 5% CO2. Adherent monocytes/macrophages cells were separated from the lymphocytes by three washing steps in RPMI/FCS medium, counted by Tripan blue exclusion dye and incubated with ddCTP-loaded erythrocytes treated or not with ZnCl2 plus BS^3 or with unloaded erythrocytes overnight at 37° C. at a ratio of 100 erythrocytes per monocytes/macrophages. During the loading procedure ^125 I-ubiquitin (2.1 mCi/mg) was also encapsulated as an internal marker to follow phagocytosis both into ddCTP-loaded on ddCTP-unloaded erythrocytes. (Ubiquitin is a polypeptide of 8 KDa that can be easily encapsulated and is retained by the erythrocytes).
After monocytes/macrophages-erythrocytes incubation the dishes were extensively washed with RPMI 1640 medium to remove all erythrocytes not phagocytosed, followed by a 0.9% ammonium chloride washing step to remove adherent erythrocytes that were not yet phagocytosed. […]

human erythrocytes [6] = assay: Stability of ddCTP in intact ddCTP-loaded erythrocytes; format: in vitro ADME
Protocol: (§1) In this case the stability of ddCTP (1 mM) in loaded erythrocytes was evaluated at 37° C. by incubation of ddCTP-loaded erythrocytes at 6% hematocrit in 0.9% (w/v) NaCl containing 10 mM glucose, 5 mM sodium, potassium phosphate buffer, pH 7.4. At different time intervals (0 to 5 h) aliquots (200 μl) of the incubation suspensions were extracted with 100 μl 10% (w/v) HClO4, centrifuged, neutralized and submitted to HPLC analyses as above. In some experiments ^3 H-ddCTP (4 Ci/mmol, Moravek Biochemicals, Inc. Brea Ca) was used.
(§2) In this case fractions of 0.3 ml were collected at the exit of the wavelength detector of the HPLC system by using an LKB fraction collector and counted in a Packard liquid scintillation Counter. Both methods (HPLC detection and liquid scintillation counting) provided similar results (i.e. ddCTP was stable in erythrocytes until ATP was maintained at physiological concentrations of 1.2 mM, while ddCTP dephosphorylation starts when ATP fall down to values lower than 1 mM.

[7] = as above; format: in vitro ADME, human; conditions: human, erythrocytes; incubation time over 3 h, 37° C; read-out: decay of ddCTP
Protocol: as §1, §2

cytidine deaminase = cytidine deaminase (Homo sapiens, UniProt P32320); conditions: cited from earlier work
Sequence of cytidine deaminase (P32320 whole entry): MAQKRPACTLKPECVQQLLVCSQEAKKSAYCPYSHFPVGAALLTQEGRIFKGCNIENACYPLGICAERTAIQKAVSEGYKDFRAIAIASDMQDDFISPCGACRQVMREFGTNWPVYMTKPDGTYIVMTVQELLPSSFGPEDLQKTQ

HIV = conditions: cited from earlier work

Question: With `Nc1ncnc2c1ncn2[C@@H]1O[C@H](COP(=O)(O)OP(=O)(O)OP(=O)(O)O)[C@@H](O)[C@H]1O` [ATP] as the molecule, how does the “effect on ddCTP dephosphorylation” value (ddCTP dephosphorylation) read?
Answer: completely abolishes

Question: With `Cc1cn([C@H]2C[C@H](N=[N+]=[N-])[C@@H](CO)O2)c(=O)[nH]c1=O` [AZT, 3'-azido-3'-deoxythymidine] as the molecule, how does the “short plasma half-life (approximate)” value ([1]; human, in vivo) read?
Answer: approximately 1 h

Question: Which “lowest ZnCl2 concentration able to modify red cell survival” value [2] does the source give for `[Cl-].[Cl-].[Zn+2]` [ZnCl2] here?
Answer: 0.1 mM

Question: With `Nc1ncnc2c1ncn2[C@H]1CC[C@@H](COP(=O)(O)OP(=O)(O)OP(=O)(O)O)O1` [ddATP, 2',3'-dideoxyadenosine-5'-triphosphate] as the molecule, how does the “time stable in erythrocyte lysate” value ([3]; 37° C) read?
Answer: at least 2 h

Question: Which “fate of ddCMP encapsulated in human erythrocytes” value (human erythrocytes [4]) does the source give for `Nc1ccn([C@H]2CC[C@@H](COP(=O)(O)O)O2)c(=O)n1` [ddCMP, 2',3'-dideoxycytidine-5'-phosphate] here?
Answer: dephosphorylated by endogenous pyrimidine nucleotidases and subsequently released by the cells as ddCyd

Question: Which “pH of maximum dephosphorylation rate” value [3] does the source give for `Nc1ccn([C@H]2CC[C@@H](COP(=O)(O)OP(=O)(O)OP(=O)(O)O)O2)c(=O)n1` [ddCTP, 2',3'-dideoxycytidine-5'-triphosphate] here?
Answer: 8.4

Question: What about the “Vmax of dephosphorylation of ddCTP to ddCDP” value ([3]; 37° C) of the same molecule?
Answer: 3±0.5 nmol/min/g HB

Question: What about the Km ([3]; 37° C, read-out: Km of dephosphorylation of ddCTP to ddCDP) of the same molecule?
Answer: 140 µM

Question: What about the “dephosphorylation rate relative to maximum rate” value ([3]; pH 7.2 (physiological value)) of the same molecule?
Answer: 50%

Question: And the “concentration of ddCTP in monocytes/macrophages after phagocytosis” value [5]?
Answer: 2.88 µM

Question: And the “ATP concentration below which ddCTP dephosphorylation starts” value (human erythrocytes [6])?
Answer: lower than 1 mM

Question: What about the “stability of ddCTP in intact cells” value (human erythrocytes [6]; 37° C, 1 mM ddCTP, 6% hematocrit) of the same molecule?
Answer: stable even at 37 °C

Question: What about the metabolised at 3 h, 1000 µM [7] of the same molecule?
Answer: 20%

Question: Which “resistance to cytidine deaminase” value (cytidine deaminase) does the source give for `Nc1ccn([C@H]2CC[C@@H](CO)O2)c(=O)n1` [ddCyd, 2',3'-Dideoxycytidine] here?
Answer: resistant to cytidine deaminase

Question: What about the “concentration that completely protects target helper/inducer T cells against HIV infections” value (HIV; in vitro) of the same molecule?
Answer: ≥ 0.5 µM

Question: What about the “concentration that can suppress the virus” value (HIV; low multiplicity of infection) of the same molecule?
Answer: ≥ 10 nM

Question: And the concentration ([1]; 0.09 mg/Kg, intravenous, 4 h, read-out: plasma level at four hours after intravenous administration)?
Answer: < 100 nM

Question: And the bioavailability ([1]; human, in vivo)?
Answer: good bioavailability

Question: And the “short plasma half-life (approximate)” value ([1]; human, in vivo)?
Answer: approximately 1 h

Question: And the concentration ([1]; patients receiving 0.09 mg/Kg, read-out: plasma level during the infusion)?
Answer: > 500 nM

Question: With `Nc1nc2c(ncn2[C@H]2CC[C@@H](COP(=O)(O)OP(=O)(O)OP(=O)(O)O)O2)c(=O)[nH]1` [ddGTP, 2',3'-dideoxyguanosine-5'-triphosphate] as the molecule, how does the “time stable in erythrocyte lysate” value ([3]; 37° C) read?
Answer: at least 2 h

Question: With `O=c1[nH]cnc2c1ncn2[C@H]1CC[C@@H](COP(=O)(O)OP(=O)(O)OP(=O)(O)O)O1` [ddITP, 2',3'-dideoxyinosine-5'-triphosphate] as the molecule, how does the “time stable in erythrocyte lysate” value ([3]; 37° C) read?
Answer: at least 2 h
